Results taken from patent publication US12460177B2, “Composition for promoting efficiency of somatic cell replication” (SEOUL NATIONAL UNIVERSITY HOSPITAL, priority 2018, dated 2025).

Test system: H3K9me3 / H3K4me3 binding at the Apobec1 (demethylase) promoter region
Test: ChIP-PCR with Apobec1 promoter primers in human mesenchymal stem cells treated with endothelin
Format: cell-based
Conditions: endothelin treatment, FIG. 1
Excerpt: Human mesenchymal stem cells were transfected with siRNA of SMARCA4 or SMARCD2, treated with endothelin, and then harvested. In the present invention, human mesenchymal stem cells (Poietics™ Human Mesenchymal Stem Cells, Lonza) were used. The cells were selected by conducting a human mesenchymal stem cell identification experiment, and identified and classified as human bone marrow-derived stem cells after the expression of a positive cell marker (CD29, CD90, CD44, CD73, CD105 or CD166) for mesenchymal stem cells, the negative identification by a cell marker (CD34, CD45, CD14, HLA-DR or CD19), and the confirmation of multipotency of mesenchymal stem cells.
Genomic DNA was extracted from the recovered cells, and reacted with a H3K9me3 or H3K4me3 antibody [anti-H3K9me3 (Abcam: cat. no. ab8898), anti-H3K4me3 (Abcam; cat. no. ab8580) or normal rabbit IgG (Cell Signaling Technology: cat. no. #2729): negative control], followed by ChIP-PCR performed using Apobec1 promoter primers that are able to confirm the binding of H3K9me3 or H3K4me3. […]
Subsequently, the resulting product was heated at 65° C. for 4 hours to remove a crosslink. DNA fragments were collected using a PCR purification kit (Qiagen) and analyzed using qPCR and semi-quantitative PCR, and the results are shown in FIG. 1.

Substance: endothelin (HLDIIW; listed as Mus musculus) [peptide generated in vascular endothelial cells, 21 amino acid residues, two S—S bonds, known as a vasoconstrictive peptide]
- binding of H3K4me3 (promoting gene expression) at the demethylase promoter region (ChIP-PCR (anti-H3K4me3)): increases
- H3K9me3 (suppressing gene expression) at the demethylase promoter region (ChIP-PCR (anti-H3K9me3)): detached
